In patent US12171793B2, “Method of activating lactic acid bacteria” (INFANT BACTERIAL THERAPEUTICS AB, priority 2015, dated 2024):
Entries after “also recorded” stand apart in the source; their conditions may differ.

Key:
[1] = system: Lactobacillus reuteri DSM 17938; assay: Growth of Lactobacillus reuteri in simulated intestinal substrate (SIS); type: cell-based; conditions: FIG. 1; GOS or glucose plus electron acceptor, 15 mM of each; 16 h at 37° C., anaerobic
Procedure: The growth of L. reuteri DSM 17938 on different combinations of sugar and electron acceptors was evaluated in “Simulated intestinal substrate” (SIS). [table] Lactobacillus reuteri cells of strain DSM 17938 were first grown over night in MRS broth (Oxoid) at 37° C. After washing in phosphate-buffered saline (PBS) the bacteria were diluted 10 × in PBS. 10 μl of bacterial suspension was thereafter inoculated to 10 ml SIS (with addition of sugar and electron acceptor), and the bacteria were cultivated for 16 h at 37° C. during anaerobic conditions and no shaking. The growth of Lactobacillus reuteri DSM 17938 in SIS with lactose and citrate as the sugar-electron acceptor pair is evaluated in the same way as described above for GOS and citrate as the electron acceptor. The above described substrate (SIS) is used.

[2] = system: Lactobacillus reuteri DSM 17938; assay: Evaluation of activation time by turbidity (BioScreen) in simulated intestinal medium STMmod 3; type: cell-based; conditions: STMmod 3, 37° C., OD 600 nm; with citrate compared to without citrate; FIG. 3
Procedure: The activation time in simulated intestinal medium (STMmod 3, see Table 4) of the two variants of lyophilized DSM 17938 (C and N) were analyzed using a computer-controlled incubator/reader/shaker (BioScreen C MBR) that measure the change in turbidity over time. The medium STMmod 3 was used to mimic the conditions in the intestine. To each well 200 μl of STMmod 3 was added. Thereafter different volumes (100, 60, 40, 30, 25 μl) of bacterial suspension (vials with lyophilized bacteria suspended in 1 ml dH2O) were added. Volumes were adjusted to 300 μl with dH2O. The analysis of each inoculation volume was done in triplicates. The BioScreen analysis was run at 37° C. for 24 hours with a 15 min interval between measurements (OD 600 nm), with the addition of a 10 s shaking step before each measuring point. [table]

O=C(O)CC(O)(CC(=O)O)C(=O)O [Citrate]
growth of Lactobacillus reuteri DSM 17938 in simulated intestinal substrate [1]: highest effect
time to reach a 3% increase in OD (activation time) [2]: shorter time; also recorded: shorten the activation time
